Patent US20080090900A1, “ANTIBIOTIC BUSHRIN” (University of Karachi, priority 2006, published 2008)
Converted amounts (≈) assume the structure as drawn. “Also recorded” adds a separate entry of the source. Read-outs that look alike come from different tables or passages of the source.

Assays:
Enterococcus faecalis [1] = experiment: disc diffusion technique; assay type: cell-based; details: 150 μg disc, read-out: Sensitivity (width of inhibition zone)
Enterococcus faecium [2] = experiment: disc diffusion technique; assay type: cell-based; details: 150 μg disc, read-out: Sensitivity (width of inhibition zone)
[3] = tested on: Bacillus steriothermophilus; experiment: disc diffusion technique; assay type: cell-based; details: 150 μg disc, read-out: Sensitivity (width of inhibition zone)
Clostridium sporogenes [4] = experiment: microbe, parasite or virus in culture; assay type: cell-based; details: Clostridium sporogenes, read-out: Sensitivity (width of inhibition zone)
Escherichia coli [5] = experiment: disc diffusion technique; assay type: cell-based; details: 150 μg disc, read-out: Sensitivity (width of inhibition zone)
Salmonella typhi = experiment: disc diffusion technique; assay type: cell-based
Proteus mirabilis [6] = experiment: disc diffusion technique; assay type: cell-based
Hafnia alvei [7] = experiment: disc diffusion technique; assay type: cell-based
Enterobacter faecalis [8] = experiment: disc diffusion technique; assay type: cell-based
[9] = tested on: MSSA methicillin sensitive staphylococcus aureus; assay type: cell-based
[10] = tested on: Staphylococcus epidermidis; assay type: cell-based
Enterococcus faecalis [11] = assay type: cell-based
Enterococcus faecium [12] = assay type: cell-based
Bacillus subtilis [13] = assay type: cell-based
[14] = tested on: Bacillus steriothermophilus; assay type: cell-based
Bacillus cereus = assay type: cell-based
Clostridium sporogenes [15] = experiment: microbe, parasite or virus in culture; assay type: cell-based
Escherichia coli [16] = assay type: cell-based
Proteus mirabilis [17] = assay type: cell-based
Serratia marcescens = assay type: cell-based
Shewanella putrifacians = assay type: cell-based
Hafnia alvei [18] = assay type: cell-based
Staphylococcus aureus [19] = assay type: cell-based
Enterobacter faecalis [20] = assay type: cell-based
Streptococcus sp = assay type: cell-based
Candida albicans = assay type: cell-based; details: MIC determination
Gram negative bacteria = assay type: cell-based
Experimental: (§1) The minimum inhibitory concentration (MIC) of Compound 1 was determined by the standard microdilution method described in the national committee for clinical laboratory standards (National Committee for Clinical Laboratory Standards, 1997. Method for dilution antimicrobial susceptibility test for bacteria, that grow aerobically, 4th ed., p, 1-29. National Committee for Clinical Laboratory Standards) using Muller Hinton broth medium (Oxoid) incubated at 37° C. for 24 h. […] This substance was slightly active against Streptococcus sp for which the MIC was 200 μg/ml.

Gram-positive bacteria = assay type: cell-based
Experimental: as §1

[21] = Heat stability test (antibacterial activity by disk diffusion after heating); assay type: physicochemical
Experimental: […] After the treatment, the liquid in each tube was evaporated completely and Compound 1 was re-dissolved in methanol to give an appropriate concentration. Then antibacterial activity was evaluated in triplicate by the disk diffusion method.

Staphylococcus aureus [22] = experiment: Bacteriolytic assay; assay type: cell-based; details: 600 nm, 30° C., 0-360 min, various concentrations
Experimental: The seed culture of Staphylococcus aureus in Luria broth (LB) were washed twice with sterile distilled water containing 0.9% sodium chloride and the absorbance was adjusted to 0.05 at 600 nm. The bacterial cell suspension was divided into aliquots of 5 ml each placed in sterile test tube and exposed to Compound 1 at various concentration, untreated bacterial suspension were used as the negative control.

Bacillus subtilis [23] = experiment: Phase contrast microscopy; assay type: cell-based; details: 50 μl/ml, immediately after treatment
Experimental: (§2) An exponential phase culture (A600, 0.05) of Bacillus subtilis and Staphylococcus aureus grown in Luria broth was treated with 50 μl/ml of Compound 1 for Bacillus subtilis and 60 μl/ml for Staphylococcus aureus and slides were immediately made in 1% agarose using 4 μl of Compound 1 treated cultures, time lapse images were obtained under phase contrast microscope, particular care was taken to minimize the sample exposure to UV light, image grabbing were performed essentially as described by Edwards and Errrington. (Edwards, D. H., and Errington, J.(1997). The Bacillus subtilis […] protein targets to the division septum and control the site specificity of cell division. Mol Microbiol 24:905-915).

Staphylococcus aureus [24] = experiment: Phase contrast microscopy; assay type: cell-based; details: 60 μl/ml, immediately after treatment
Experimental: as §2

Bacillus subtilis [25] = experiment: Complete killing of Bacillus subtilis; assay type: cell-based
[26] = tested on: Staphylococcus aureus (ATCC33591); experiment: Time kill experiment
[27] = 150 μg disc, read-out: Sensitivity (width of inhibition zone)

SMILES: Cc1cc(O)c2c(c1)C=CC(C)(c1ccoc1)C2 (stereo not drawn) [Compound 1, 7-(3-furyl)-3,7-dimethyl-7,8-dihydro-1-naphthalenol]
- zone of inhibition at 150 µg/disc (Enterococcus faecalis [1]): 18 to 30 mm
- zone of inhibition at 150 µg/disc (Enterococcus faecium [2]): 18 to 30 mm
- zone of inhibition at 150 µg/disc [3]: 18 to 30 mm
- zone of inhibition at 150 µg/disc (Clostridium sporogenes [4]): 10 to 15 mm
- zone of inhibition at 150 µg/disc (Escherichia coli [5]): 10 to 15 mm
- zone of inhibition at 150 µg/disc (Salmonella typhi; Salmonella enterica, TYPHI, read-out: Sensitivity (width of inhibition zone)): 15 to 20 mm
- antibacterial activity (Salmonella typhi; disc diffusion, Salmonella typhi): active; also recorded: activity
- antibacterial activity (Proteus mirabilis [6]): active; also recorded: activity
- zone of inhibition at 150 µg/disc (Proteus mirabilis [6]; [27]): 18 to 30 mm
- antibacterial activity (Hafnia alvei [7]): active; also recorded: activity
- zone of inhibition at 150 µg/disc (Hafnia alvei [7]; [27]): 15 to 20 mm
- antibacterial activity (Enterobacter faecalis [8]): active; also recorded: activity
- MIC [9]: 60 µg/mL (≈ 250 µM)
- MIC [10]: 50 to 100 µg/mL
- MIC ([10]; Staphylococcus epidermidis, read-out: MIC): 50 µg/mL (≈ 208 µM)
- MIC (Enterococcus faecalis [11]): 50 µg/mL (≈ 208 µM)
- MIC (Enterococcus faecium [12]): 50 µg/mL (≈ 208 µM)
- MIC (Bacillus subtilis [13]): 50 to 60 µg/mL
- MIC (Bacillus subtilis [13]; Bacillus subtilis, read-out: MIC): 50 µg/mL (≈ 208 µM)
- MIC [14]: 50 to 60 µg/mL
- MIC ([14]; Bacillus steriothermophilus, read-out: MIC): 50 µg/mL (≈ 208 µM)
- MIC (Bacillus cereus): 60 µg/mL (≈ 250 µM)
- MIC (Clostridium sporogenes [15]): 125 µg/mL (≈ 520 µM)
- MIC (Escherichia coli [16]): 75 µg/mL (≈ 312 µM)
- MIC (Proteus mirabilis [17]): 75 µg/mL (≈ 312 µM)
- MIC (Proteus mirabilis [17]; Proteus mirabilis, read-out: MIC): 75 µg/mL (≈ 312 µM)
- MIC (Serratia marcescens): 60 µg/mL (≈ 250 µM)
- MIC (Serratia marcescens; Serratia marcescens, read-out: MIC): 60 µg/mL (≈ 250 µM)
- MIC (Shewanella putrifacians): 75 µg/mL (≈ 312 µM)
- MIC (Hafnia alvei [18]): 100 µg/mL (≈ 416 µM)
- MIC (Hafnia alvei [18]; Hafnia alvei, read-out: MIC): 100 µg/mL (≈ 416 µM)
- MIC (Staphylococcus aureus [19]; Staphylococcus aureus): 50 to 100 µg/mL (≈ 208 to 416 µM)
- MIC (Staphylococcus aureus [19]; Staphylococcus aureus (ATCC33591), stated in time kill experiment, read-out: MIC): 50 µg/mL (≈ 208 µM)
- MIC (Enterobacter faecalis [20]): 100 µg/mL (≈ 416 µM)
- MIC (Streptococcus sp): 200 µg/mL (≈ 832 µM)
- activity against Candida albicans (Candida albicans): not found active
- MIC (Gram negative bacteria): 75 to 125 µg/mL (≈ 312 to 520 µM)
- MIC (Gram-positive bacteria): 50 to 75 µg/mL (≈ 208 to 312 µM)
- antibacterial activity after heat treatment ([21]; at 200° C.): completely lost
- antibacterial activity after heat treatment ([21]; treatment at 120° C.): significantly reduced
- absorbance of Staphylococcus aureus cell suspension (lysis) (Staphylococcus aureus [22]): Reduction of the absorbance
- morphological change of treated cells (time lapse images) (Bacillus subtilis [23]): uniform and consistent decrease in size of cells
- morphological change of treated cells (time lapse images) (Staphylococcus aureus [24]): complete lyses
- concentration that completely killed (Bacillus subtilis [25]): 100 µg/mL
- concentration able to kill completely ([26]; Staphylococcus aureus): 125 µg/mL
- exposure time after which number of viable bacterial cells decreased ([26]; at MIC 50 μg/ml): 8 h
- course of viable bacterial cell count ([26]; at two and four times the MIC): decreased drastically
- time after which viable count decreased drastically ([26]; four times the MIC): 1 h
- killing rate compared with test antibiotics ([26]; same concentration and length of exposure, vs vancomycin, nisin, tetracycline, ampicillin): much higher
- bactericidal activity ([26]; time kill, Staphylococcus aureus): rapidly bactericidal
- time after which viable count decreased drastically ([26]; two times the MIC): 2 h
